Assays:
[1] = biological target: Coagulation factor X (Homo sapiens, UniProt P00742); test: In vitro inhibitory activity against coagulation factor X
[2] = biological target: Prothrombin (Homo sapiens, UniProt P00734); test: In vitro inhibitory activity against thrombin
[3] = biological target: Serine protease 1 (Homo sapiens, UniProt P07477); test: In vitro inhibitory activity against trypsin
[4] = Oral bioavailability in rat; type: ADME, organism-based; settings: in vivo
[5] = system: Oryctolagus cuniculus; test: Antithrombotic effect (Inhibition of thrombus formation) in a rabbit deep vein thrombosis model at 0.132 uM plasma concentration following iv administration; type: functional
[6] = system: Oryctolagus cuniculus; test: Antithrombotic effect (Inhibition of thrombus formation) in a rabbit deep vein thrombosis model at 1.1 uM plasma concentration following iv administration; type: functional

Chain of Serine protease 1 (P07477 whole entry): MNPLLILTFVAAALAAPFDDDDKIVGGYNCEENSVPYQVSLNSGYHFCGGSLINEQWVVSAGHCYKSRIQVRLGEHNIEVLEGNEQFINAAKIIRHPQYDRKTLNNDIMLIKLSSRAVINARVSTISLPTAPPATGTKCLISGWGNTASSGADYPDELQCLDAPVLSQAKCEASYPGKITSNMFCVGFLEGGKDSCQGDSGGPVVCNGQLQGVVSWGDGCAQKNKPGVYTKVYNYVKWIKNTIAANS
Chain of Coagulation factor X (P00742 41-179 limits assumed): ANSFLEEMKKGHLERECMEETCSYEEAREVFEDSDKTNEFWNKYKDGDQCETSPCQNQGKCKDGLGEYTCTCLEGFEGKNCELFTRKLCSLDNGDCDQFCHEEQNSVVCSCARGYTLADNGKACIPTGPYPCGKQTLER
Chain of Coagulation factor X (P00742 235-488 limits assumed): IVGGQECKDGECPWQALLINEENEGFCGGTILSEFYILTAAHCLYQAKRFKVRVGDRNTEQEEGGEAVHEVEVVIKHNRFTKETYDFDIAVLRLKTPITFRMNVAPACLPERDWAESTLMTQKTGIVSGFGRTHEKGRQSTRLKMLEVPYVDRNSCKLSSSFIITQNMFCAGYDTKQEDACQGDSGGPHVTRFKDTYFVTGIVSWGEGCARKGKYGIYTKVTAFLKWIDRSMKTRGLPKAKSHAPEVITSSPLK

Row | IC50 [1] [nM] | IC50 [2] [nM] | IC50 [3] [nM] | bioavailability [4] [%] | Compound | Inhibition [5] [%] | Inhibition [6] [%]
1 |  | > 10000 | 9820 |  | N=C(N)c1cccc(OC(C(=O)Nc2ccc(-c3ccccc3S(N)(=O)=O)cc2F)c2ccccc2)c1 (centres undefined) |  | 
2 | 0.7 | > 10000 | 283 |  | N=C(N)c1ccc(O)c(OCC(=O)Nc2ccc(C(=O)N3CCCC3)cc2)c1 |  | 
3 | 0.18 |  | 174 | 5 | N=C(N)c1cccc(OC(C(=O)Nc2ccc(C(=O)N3CCCC3)cc2)c2ccccc2)c1 (centres undefined) |  | 81
4 | 2930 | > 10000 | 6640 |  | CC(C)(C)OC(=O)C1CCCN1C(=O)c1ccc(NC(=O)COc2cccc(C(=N)N)c2)cc1 (centres undefined) |  | 
5 | 14 |  | 5330 |  | N=C(N)c1cccc(OC(C(=O)Nc2ccc(-n3cnc(Cl)c3Cl)cc2)c2ccccc2)c1 (centres undefined) |  | 
6 |  | > 10000 | > 10000 |  | N=C(N)c1cccc(OCC(=O)Nc2ccc(C(=O)N3CCCCC3)cc2)c1 |  | 
7 | 4.4 |  |  |  | N=C(N)c1cccc(OC(C(=O)Nc2ccc(N3CCOCC3)c(F)c2)c2ccccc2)c1 (centres undefined) |  | 

Continued, compound first:

Row | Compound | IC50 [1] [nM] | IC50 [2] [nM] | IC50 [3] [nM] | bioavailability [4] [%] | Inhibition [5] [%] | Inhibition [6] [%]
8 | N=C(N)c1cccc(OCC(=O)Nc2ccc(-c3ccccc3S(N)(=O)=O)cc2)c1 | 21 | > 10000 | 3370 |  |  | 
9 | N=C(N)c1cccc(OCC(=O)Nc2ccc(C(=O)N3CCCC3C(=O)O)cc2)c1 (centres undefined) | > 10000 | > 10000 | > 10000 |  |  | 
10 | N=C(N)c1cccc(OC(C(=O)Nc2ccc(-c3ccccc3S(N)(=O)=O)cc2Br)c2ccccc2)c1 (centres undefined) | 3.2 | 8640 | 4000 |  |  | 
11 | N=C(N)c1cccc(OC(C(=O)Nc2ccc(C(=O)N3CCCC3)cc2Br)c2ccccc2)c1 (centres undefined) | 0.99 | > 10000 | 521 |  |  | 
12 | N=C(N)c1cccc(OCC(=O)Nc2ccc(C(=O)N3CC=CC3)cc2)c1 | 6.3 | > 10000 | 875 |  |  | 
13 | N=C(N)c1cccc(OCC(=O)Nc2ccc(C(=O)N3CCCC3)cc2)c1 | 66 | > 10000 | 2700 |  |  | 
14 | N=C(N)c1cccc(OC(C(=O)Nc2ccc(-n3ccc(C(F)(F)F)n3)cc2)c2ccccc2)c1 (centres undefined) | 170 | > 10000 | > 10000 |  |  | 
15 | N=C(N)c1cccc(OCCC(=O)Nc2ccc(-c3ccccc3S(N)(=O)=O)cc2)c1 | 6.4 | > 10000 | 2570 |  |  | 
16 | N=C(N)c1cccc(OC(C(=O)Nc2cc(Cl)c(-n3cccc3)cc2Cl)c2ccccc2)c1 (centres undefined) | 93 | 4090 | 8780 |  |  | 
17 | N=C(N)c1ccc(O)c(OCC(=O)Nc2ccc(-c3ccccc3S(N)(=O)=O)cc2)c1 | 2.2 | > 10000 | 2290 |  |  | 
18 | N=C(N)c1cccc(OC(C(=O)Nc2ccc(-c3ccccc3S(N)(=O)=O)cc2)c2ccccc2)c1 (centres undefined) | 0.55 | > 10000 | 1250 | 5 | 56 | 
19 | N=C(N)c1cccc(OCC(=O)Nc2ccc(C(=O)N3CCC3)cc2)c1 | 227 | > 10000 | 2050 |  |  | 
20 | N=C(N)c1cccc(OCC(=O)Nc2ccc(C(=O)N3CCCCCC3)cc2)c1 | 1190 | > 10000 | > 10000 |  |  | 
21 | CN1CCN(C(=O)c2ccc(NC(=O)COc3cccc(C(=N)N)c3)cc2)CC1 | > 10000 | > 10000 | > 10000 |  |  | 
22 | N=C(N)c1cccc(OCC(=O)Nc2ccc(C(=O)N3CCOCC3)cc2)c1 | 1120 | > 10000 | > 10000 |  |  | 
